According to PMC7127646 (Bioorganic & Medicinal Chemistry Letters, 2009):

Assays:
[1] = biological target: T1, SARS-CoV helicase (Severe acute respiratory syndrome coronavirus, UniProt P0C6X7); format: biochemical
[2] = biological target: T1, SARS-CoV helicase; format: biochemical; remark: listed apart in the source

## O=c1c(O)c(-c2ccc3c(c2)OCO3)oc2cc(O)cc(O)c12 [Compound 3b, 2-Benzo[1,3]dioxol-5-yl-3,5,7-trihydroxy-chromen-4-one]
[1]
  inhibition of helicase ATPase activity (in words): failed to show any inhibition
[2]
  inhibition of duplex DNA-unwinding activity (in words): failed to show any inhibition
